Converted amounts (≈) assume the structure as drawn. The source made the active and inactive calls. The calls are words filed in the database; no cut-off is given here. Starred links: 1 amine or outer side, 2 acyl side, 3 side chain; linkers in the order of their positions; H or OH if unused. Non-standard residues stand in square brackets, D forms with d. Residues, ends and D or L forms follow the SMILES beside them. ξ: configuration not given here. Pro(3ξ,4ξ-(CH2)4) = O=C(O)[C@H]1NCC2CCCCC21; Oic = O=C(O)[C@@H]1C[C@@H]2CCCC[C@@H]2N1; X1 = O=C([C@@H]1CN([*:1])C2CCCCC21)[*:2]; Tic = O=C(O)[C@@H]1Cc2ccccc2CN1; Dap = NC[C@H](N)C(=O)O; GABA = NCCCC(=O)O
Assays:
Salmonella typhimurium = assay: Antibacterial activity against Salmonella Typhimurium ATCC 13311; type: functional, Salmonella enterica subsp. enterica serovar Typhimurium; details: for MIC: Salmonella enterica
Staphylococcus aureus = assay: Antibacterial activity against methicillin/gentamicin/tetracycline resistant Staphylococcus aureus ATCC 33592; type: functional
Mycobacterium = assay: Antibacterial activity against Mycobacterium ranae ATCC 110; type: functional
Bacillus subtilis = assay: Antibacterial activity against Bacillus subtilis ATCC 43223; type: functional
[1] = Toxicity to mouse RBC assessed as hemolytic activity at 100 uM; type: cell-based, Erythrocyte; details: red blood cells, read-out: Activity
[2] = Toxicity to mouse RBC assessed as hemolytic activity at 25 uM; type: cell-based, Erythrocyte; details: red blood cells, read-out: Activity

Compound | MIC (Salmonella typhimurium) [µM] | MIC (Staphylococcus aureus) [µM] | MIC (Mycobacterium) [µM] | MIC (Bacillus subtilis) [µM] | hemolysis at 100 µM [1] [%] | hemolysis at 25 µM [2] [%] | Activity (Salmonella typhimurium; Salmonella enterica subsp. enterica serovar Typhimurium)
CC(=O)N[C@@H](Cc1ccccc1)C(=O)N1Cc2ccccc2C[C@H]1C(=O)N1CC2CCCCC2[C@H]1C(=O)N[C@@H](CCCCN)C(=O)N1Cc2ccccc2C[C@H]1C(=O)N1CC2CCCCC2[C@H]1C(=O)N[C@@H](Cc1ccccc1)C(=O)N1Cc2ccccc2C[C@H]1C(=O)N1CC2CCCCC2[C@H]1C(=O)N[C@@H](CCCCN)C(=O)N1Cc2ccccc2C[C@H]1C(=O)N[C@@H](CCCCN)C(=O)N[C@@H](CCCCN)C(=O)N[C@@H](CCCCN)C(=O)N[C@@H](CCCCN)C(=O)N[C@@H](CCCCN)C(=O)N[C@@H](CCCCN)C(N)=O (some centres undefined) (Ac-F[Tic][Pro(3ξ,4ξ-(CH2)4)]K[Tic][Pro(3ξ,4ξ-(CH2)4)]F[Tic][Pro(3ξ,4ξ-(CH2)4)]K[Tic]KKKKKK-NH2) | 10 (≈ 24.7 µg/mL) | 3 (≈ 7.41 µg/mL) | 3 (≈ 7.41 µg/mL) | 1 (≈ 2.47 µg/mL) | 41.3 | 33.5 | –
CC(=O)NCC(=O)N[C@@H](Cc1ccccc1)C(=O)N1Cc2ccccc2C[C@H]1C(=O)N1[C@H](C(=O)NCC(=O)N[C@@H](CN)C(=O)N2Cc3ccccc3C[C@H]2C(=O)N2[C@H](C(=O)NCC(=O)N[C@@H](Cc3ccccc3)C(=O)N3Cc4ccccc4C[C@H]3C(=O)N3[C@H](C(=O)NCC(=O)N[C@@H](CN)C(=O)N4Cc5ccccc5C[C@H]4C(=O)N[C@@H](CN)C(=O)N[C@@H](CN)C(=O)N[C@@H](CN)C(=O)N[C@@H](CN)C(N)=O)C[C@@H]4CCCC[C@@H]43)C[C@@H]3CCCC[C@@H]32)C[C@@H]2CCCC[C@@H]21 (Ac-GF[Tic][Oic]G[Dap][Tic][Oic]GF[Tic][Oic]G[Dap][Tic][Dap][Dap][Dap][Dap]-NH2) | 3 (≈ 6.57 µg/mL) | 10 (≈ 21.9 µg/mL) | 100 (≈ 219 µg/mL) | 1 (≈ 2.19 µg/mL) | – | – | –
CC(=O)NCC(=O)N[C@@H](Cc1ccccc1)C(=O)N1Cc2ccccc2C[C@H]1C(=O)N1CC2CCCCC2[C@H]1C(=O)NCC(=O)N[C@@H](CCCCN)C(=O)N1Cc2ccccc2C[C@H]1C(=O)N1CC2CCCCC2[C@H]1C(=O)NCC(=O)N[C@@H](Cc1ccccc1)C(=O)N1Cc2ccccc2C[C@H]1C(=O)N1CC2CCCCC2[C@H]1C(=O)NCC(=O)N[C@@H](CCCCN)C(=O)N1Cc2ccccc2C[C@H]1C(=O)N[C@@H](CCCCN)C(=O)N[C@@H](CCCCN)C(=O)N[C@@H](CCCCN)C(=O)N[C@@H](CCCCN)C(=O)N[C@@H](CCCCN)C(N)=O (some centres undefined) (Ac-GF[Tic][Pro(3ξ,4ξ-(CH2)4)]GK[Tic][Pro(3ξ,4ξ-(CH2)4)]GF[Tic][Pro(3ξ,4ξ-(CH2)4)]GK[Tic]KKKKK-NH2) [listing 1 of 2 here] | 10 (≈ 25.7 µg/mL) | 3 (≈ 7.71 µg/mL) | 3 (≈ 7.71 µg/mL) | 1 (≈ 2.57 µg/mL) | – | – | –
CC(=O)NCC(=O)N[C@@H](Cc1ccccc1)C(=O)N1Cc2ccccc2C[C@H]1C(=O)N1CC2CCCCC2[C@H]1C(=O)NCC(=O)N[C@@H](CCCCN)C(=O)N1Cc2ccccc2C[C@H]1C(=O)N1CC2CCCCC2[C@H]1C(=O)NCC(=O)N[C@@H](Cc1ccccc1)C(=O)N1Cc2ccccc2C[C@H]1C(=O)N1CC2CCCCC2[C@H]1C(=O)NCC(=O)N[C@@H](CCCCN)C(=O)N1Cc2ccccc2C[C@H]1C(=O)N[C@@H](CCCCN)C(=O)N[C@@H](CCCCN)C(=O)N[C@@H](CCCCN)C(=O)N[C@@H](CCCCN)C(=O)N[C@@H](CCCCN)C(N)=O (some centres undefined) (Ac-GF[Tic][Pro(3ξ,4ξ-(CH2)4)]GK[Tic][Pro(3ξ,4ξ-(CH2)4)]GF[Tic][Pro(3ξ,4ξ-(CH2)4)]GK[Tic]KKKKK-NH2) [listing 2 of 2 here] | – | – | – | – | 24.9 | 18.9 | –
CC(=O)NCCCC(=O)N[C@@H](Cc1ccccc1)C(=O)N1Cc2ccccc2C[C@H]1C(=O)N1[C@H](C(=O)NCCCC(=O)N[C@@H](CCCCN)C(=O)N2Cc3ccccc3C[C@H]2C(=O)N2[C@H](C(=O)NCCCC(=O)N[C@@H](Cc3ccccc3)C(=O)N3Cc4ccccc4C[C@H]3C(=O)N3[C@H](C(=O)NCCCC(=O)N[C@@H](CCCCN)C(=O)N4Cc5ccccc5C[C@H]4C(=O)N[C@@H](CCCCN)C(=O)N[C@@H](CCCCN)C(=O)N[C@@H](CCCCN)C(=O)N[C@@H](CCCCN)C(=O)N[C@@H](CCCCN)C(N)=O)C[C@@H]4CCCC[C@@H]43)C[C@@H]3CCCC[C@@H]32)C[C@@H]2CCCC[C@@H]21 (Ac-[GABA]F[Tic][Oic][GABA]K[Tic][Oic][GABA]F[Tic][Oic][GABA]K[Tic]KKKKK-NH2) | 10 (≈ 26.8 µg/mL) | 30 (≈ 80.4 µg/mL) | 3 (≈ 8.04 µg/mL) | 1 (≈ 2.68 µg/mL) | – | – | –
CC(C)C[C@H](NC(=O)[C@@H](N)CCCCN)C(=O)N1Cc2ccccc2C[C@H]1C(=O)N1C[C@@H](C(=O)N[C@@H](CCCCN)C(=O)N2Cc3ccccc3C[C@H]2C(=O)N2C[C@@H](C(=O)N[C@@H](Cc3ccccc3)C(=O)N3Cc4ccccc4C[C@H]3C(=O)N3C[C@@H](C(=O)N[C@@H](CCCCN)C(=O)N4Cc5ccccc5C[C@H]4C(=O)N4C[C@@H](C(=O)N[C@@H](Cc5ccccc5)C(=O)N5Cc6ccccc6C[C@H]5C(=O)N5C[C@@H](C(=O)N[C@@H](CCCCN)C(=O)N6Cc7ccccc7C[C@H]6C(=O)N6C[C@@H](C(=O)N[C@@H](CCCCN)C(=O)N[C@@H](CCCNC(=N)N)C(N)=O)C7CCCCC76)C6CCCCC65)C5CCCCC54)C4CCCCC43)C3CCCCC32)C2CCCCC21 (some centres undefined) (H-KL[Tic][X1]K[Tic][X1]F[Tic][X1]K[Tic][X1]F[Tic][X1]K[Tic][X1]KR-NH2) | – | 10 (≈ 30.8 µg/mL) | 30 (≈ 92.5 µg/mL) | 1 (≈ 3.08 µg/mL) | 63 | – | inactive
NCCCC[C@H](NC(=O)[C@H](CCCCN)NC(=O)[C@H](CCCCN)NC(=O)[C@H](CCCCN)NC(=O)[C@@H]1Cc2ccccc2CN1C(=O)[C@H](CCCCN)NC(=O)CNC(=O)[C@@H]1C[C@@H]2CCCC[C@@H]2N1C(=O)[C@@H]1Cc2ccccc2CN1C(=O)[C@H](Cc1ccccc1)NC(=O)CNC(=O)[C@@H]1C[C@@H]2CCCC[C@@H]2N1C(=O)[C@@H]1Cc2ccccc2CN1C(=O)[C@H](CCCCN)NC(=O)CNC(=O)[C@@H]1C[C@@H]2CCCC[C@@H]2N1C(=O)[C@@H]1Cc2ccccc2CN1C(=O)[C@H](Cc1ccccc1)NC(=O)CN)C(N)=O (H-GF[Tic][Oic]GK[Tic][Oic]GF[Tic][Oic]GK[Tic]KKKK-NH2) | 3 (≈ 7.2 µg/mL) | 10 (≈ 24 µg/mL) | 10 (≈ 24 µg/mL) | 1 (≈ 2.4 µg/mL) | – | – | –

Reference: ChEMBL document CHEMBL1145395, “De novo design of selective antibiotic peptides by incorporation of unnatural amino acids” (J Med Chem, 2007)
